In patent US11739098B2 (BRISTOL-MYERS SQUIBB COMPANY, priority 2017, dated 2023) one finds IC50 data, which are given here for eleven compounds.

SMILES strings stand for the structures.

Common to all, as to type: cell-based
For one assay, the target named is T1, human TLR8 (Homo sapiens, UniProt Q9NR97).
T1 construct: host or cells: HEK-Blue cells (HEK293-derived reporter line)
T1 sequence (Q9NR97 27-1041): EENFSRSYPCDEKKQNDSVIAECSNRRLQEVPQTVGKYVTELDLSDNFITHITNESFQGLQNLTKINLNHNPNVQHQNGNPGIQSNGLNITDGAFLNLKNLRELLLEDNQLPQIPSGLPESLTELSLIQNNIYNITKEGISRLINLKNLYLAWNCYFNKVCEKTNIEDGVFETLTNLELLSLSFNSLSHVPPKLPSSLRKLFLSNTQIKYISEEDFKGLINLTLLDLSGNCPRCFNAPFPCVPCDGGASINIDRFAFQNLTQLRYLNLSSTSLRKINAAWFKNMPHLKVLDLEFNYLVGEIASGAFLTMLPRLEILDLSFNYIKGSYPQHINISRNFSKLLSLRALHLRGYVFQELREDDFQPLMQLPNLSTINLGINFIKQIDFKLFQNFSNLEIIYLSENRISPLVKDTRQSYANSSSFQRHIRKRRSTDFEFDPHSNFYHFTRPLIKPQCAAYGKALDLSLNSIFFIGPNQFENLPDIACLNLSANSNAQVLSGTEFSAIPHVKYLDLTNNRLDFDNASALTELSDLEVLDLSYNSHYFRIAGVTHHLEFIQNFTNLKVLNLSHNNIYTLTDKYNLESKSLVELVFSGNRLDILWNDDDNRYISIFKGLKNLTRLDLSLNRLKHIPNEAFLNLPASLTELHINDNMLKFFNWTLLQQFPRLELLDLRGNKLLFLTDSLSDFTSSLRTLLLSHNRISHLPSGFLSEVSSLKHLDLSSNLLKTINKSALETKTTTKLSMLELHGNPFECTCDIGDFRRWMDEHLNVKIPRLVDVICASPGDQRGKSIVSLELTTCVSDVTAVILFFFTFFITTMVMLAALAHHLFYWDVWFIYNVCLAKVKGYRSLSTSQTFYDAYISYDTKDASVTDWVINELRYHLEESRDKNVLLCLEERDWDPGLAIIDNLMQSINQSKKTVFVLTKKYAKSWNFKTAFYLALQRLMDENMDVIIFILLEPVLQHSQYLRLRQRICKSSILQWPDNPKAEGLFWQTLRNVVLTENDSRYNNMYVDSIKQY
The assay can be described thus: TLR8 inhibition reporter assay (HEK-Blue cells, SEAP reporter, R848 stimulation). As to conditions: HEK-Blue cells overexpressing human TLR8, SEAP reporter, R848 15.9 μM. In outline:
(§1)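 Read-out is SEAP activity in HEK-Blue detection medium after 22 h at 37 °C, converted to percent inhibition against agonist-plus-DMSO and reference-inhibitor controls. Cells saw compound (0.05 nM–50 μM, 30 min, room temperature) before gardiquimod 7.5 μM, R848 15.9 μM or ODN2006 5 nM for TLR7, TLR8 and TLR9, respectively.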
For orientation: A reporter such as luciferase makes a cellular process visible.

Another assay addresses T2, human TLR9 (Homo sapiens, UniProt Q9NR96).
T2 construct: host or cells: HEK-Blue cells (HEK293-derived reporter line)
T2 sequence (Q9NR96 26-1032): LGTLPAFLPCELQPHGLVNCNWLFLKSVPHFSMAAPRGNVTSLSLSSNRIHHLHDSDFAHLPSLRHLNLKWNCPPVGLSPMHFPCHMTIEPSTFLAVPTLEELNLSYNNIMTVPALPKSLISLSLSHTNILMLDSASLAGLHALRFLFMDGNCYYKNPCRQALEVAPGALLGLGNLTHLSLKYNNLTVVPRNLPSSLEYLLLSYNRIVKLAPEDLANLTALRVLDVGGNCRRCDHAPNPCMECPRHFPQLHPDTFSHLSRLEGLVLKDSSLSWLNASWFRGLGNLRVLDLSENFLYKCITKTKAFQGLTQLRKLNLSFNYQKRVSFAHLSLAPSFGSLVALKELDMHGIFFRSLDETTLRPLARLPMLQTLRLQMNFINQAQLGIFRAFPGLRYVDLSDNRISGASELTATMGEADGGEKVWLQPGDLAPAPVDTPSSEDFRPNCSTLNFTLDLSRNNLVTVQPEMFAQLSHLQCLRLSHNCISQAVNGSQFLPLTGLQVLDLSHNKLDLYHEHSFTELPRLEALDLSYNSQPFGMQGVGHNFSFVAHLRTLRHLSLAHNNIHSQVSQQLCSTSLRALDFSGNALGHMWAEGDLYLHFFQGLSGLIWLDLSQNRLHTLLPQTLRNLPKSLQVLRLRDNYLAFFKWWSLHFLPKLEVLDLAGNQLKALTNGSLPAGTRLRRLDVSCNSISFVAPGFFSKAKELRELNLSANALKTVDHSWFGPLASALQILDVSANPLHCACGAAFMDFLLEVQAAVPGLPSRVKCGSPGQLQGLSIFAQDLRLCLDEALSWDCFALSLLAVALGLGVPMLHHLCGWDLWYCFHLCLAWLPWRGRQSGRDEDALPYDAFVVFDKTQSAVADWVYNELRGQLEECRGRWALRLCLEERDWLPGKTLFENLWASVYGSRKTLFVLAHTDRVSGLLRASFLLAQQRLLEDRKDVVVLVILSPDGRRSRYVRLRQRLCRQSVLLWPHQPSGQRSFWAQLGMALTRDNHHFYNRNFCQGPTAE
The assay can be described thus: TLR9 inhibition reporter assay (HEK-Blue cells, SEAP reporter, ODN2006 stimulation). To be noted: HEK-Blue cells overexpressing human TLR9, SEAP reporter, ODN2006 5 nM. In outline:
as §1

The target in the next assay is T3, human TLR7 (Homo sapiens, UniProt Q9NYK1).
T3 construct: host or cells: HEK-Blue cells (HEK293-derived reporter line)
T3 sequence (Q9NYK1 27-1049): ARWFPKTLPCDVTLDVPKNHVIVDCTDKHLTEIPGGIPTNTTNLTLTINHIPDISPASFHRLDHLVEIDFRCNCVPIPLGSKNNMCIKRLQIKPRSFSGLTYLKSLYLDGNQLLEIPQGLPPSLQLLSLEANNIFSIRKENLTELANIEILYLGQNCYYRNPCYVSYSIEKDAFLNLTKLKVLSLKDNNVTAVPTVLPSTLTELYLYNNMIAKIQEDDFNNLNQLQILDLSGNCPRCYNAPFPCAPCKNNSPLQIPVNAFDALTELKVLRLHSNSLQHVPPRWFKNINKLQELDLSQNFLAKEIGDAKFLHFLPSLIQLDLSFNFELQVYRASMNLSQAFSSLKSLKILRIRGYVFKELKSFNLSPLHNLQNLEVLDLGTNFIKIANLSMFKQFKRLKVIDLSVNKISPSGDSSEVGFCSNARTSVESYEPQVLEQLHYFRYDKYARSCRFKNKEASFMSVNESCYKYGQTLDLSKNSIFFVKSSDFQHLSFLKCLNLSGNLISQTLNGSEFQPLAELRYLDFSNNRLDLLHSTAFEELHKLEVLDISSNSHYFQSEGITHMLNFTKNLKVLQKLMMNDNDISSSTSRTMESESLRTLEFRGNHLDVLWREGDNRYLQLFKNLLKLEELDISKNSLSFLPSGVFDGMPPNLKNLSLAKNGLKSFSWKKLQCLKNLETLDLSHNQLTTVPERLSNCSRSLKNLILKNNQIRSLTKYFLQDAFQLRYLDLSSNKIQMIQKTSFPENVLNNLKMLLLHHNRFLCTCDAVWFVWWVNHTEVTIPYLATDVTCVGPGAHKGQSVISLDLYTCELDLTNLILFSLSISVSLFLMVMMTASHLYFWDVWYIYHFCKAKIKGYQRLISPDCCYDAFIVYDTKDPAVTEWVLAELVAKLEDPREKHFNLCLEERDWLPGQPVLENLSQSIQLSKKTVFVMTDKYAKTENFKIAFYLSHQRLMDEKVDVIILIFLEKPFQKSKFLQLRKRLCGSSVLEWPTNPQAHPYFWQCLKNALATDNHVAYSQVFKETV
The assay can be described thus: TLR7 inhibition reporter assay (HEK-Blue cells, SEAP reporter, gardiquimod stimulation). As to conditions: HEK-Blue cells overexpressing human TLR7, SEAP reporter, gardiquimod 7.5 μM. An outline of the steps:
as §1

As usually defined, the IC50 is the concentration needed to halve the response being measured. For `Cc1cc(-c2[nH]c3ccc(C4CCN(C(=O)CCN(C)C(C)C)CC4)cc3c2C(C)C)cn2nnnc12` [Example 624, 3-(isopropyl(methyl)amino)-1-(4-(3-isopropyl-2-(8-methyltetrazolo[1,5-a]pyridin-6-yl)-1H-indol-5-yl)piperidin-1-yl)propan-1-one], the 50% inhibitory concentration (IC50) was < 100 nM on human TLR8, 100 to 1000 nM on human TLR9 and < 100 nM against human TLR7.

In the case of `CCN(C)CCC(=O)N1CCC(c2ccc3[nH]c(-c4cc(C)c5nnnn5c4)c(C(C)C)c3c2)CC1` [Example 625, 3-(ethyl(methyl)amino)-1-(4-(3-isopropyl-2-(8-methyltetrazolo[1,5-a]pyridin-6-yl)-1H-indol-5-yl)piperidin-1-yl)propan-1-one], the results for the 50% inhibitory concentration (IC50) against human TLR8, against human TLR9 and against human TLR7 were < 100 nM, 1000 to 50000 nM and < 100 nM, respectively.

As for `Cc1cc(-c2[nH]c3ccc(C4CCN(C(=O)CCN5CCC(F)(F)C5)CC4)cc3c2C(C)C)cn2nnnc12` [Example 626, 3-(3,3-difluoropyrrolidin-1-yl)-1-(4-(3-isopropyl-2-(8-methyltetrazolo[1,5-a]pyridin-6-yl)-1H-indol-5-yl)piperidin-1-yl)propan-1-one], the IC50 against human TLR8 is 100 to 1000 nM; against human TLR9, > 50000 nM; on human TLR7 it was < 100 nM.

For `Cc1cc(-c2[nH]c3ccc(C4CCN(C(=O)CCN5CCOCC5)CC4)cc3c2C(C)C)cn2nnnc12` [Example 627, 1-(4-(3-isopropyl-2-(8-methyltetrazolo[1,5-a]pyridin-6-yl)-1H-indol-5-yl)piperidin-1-yl)-3-morpholinopropan-1-one], the results for the half-maximal inhibitory concentration (IC50) against human TLR8, at human TLR9 and on human TLR7 were < 100 nM, 1000 to 50000 nM and < 100 nM, respectively.

Regarding `Cc1cc(-c2[nH]c3ccc(C4CCN(C(=O)CCN5CCC(F)(F)CC5)CC4)cc3c2C(C)C)cn2nnnc12` [Example 628, 3-(4,4-difluoropiperidin-1-yl)-1-(4-(3-isopropyl-2-(8-methyltetrazolo[1,5-a]pyridin-6-yl)-1H-indol-5-yl)piperidin-1-yl)propan-1-one], the 50% inhibitory concentration (IC50) was < 100 nM against human TLR8, 1000 to 50000 nM against human TLR9 and < 100 nM on human TLR7.

With `Cc1cc(-c2[nH]c3ccc(C4CCN(C(=O)CCN5CCCCC5)CC4)cc3c2C(C)C)cn2nnnc12` [Example 629, 1-(4-(3-isopropyl-2-(8-methyltetrazolo[1,5-a]pyridin-6-yl)-1H-indol-5-yl)piperidin-1-yl)-3-(piperidin-1-yl)propan-1-one], the IC50 against human TLR8 is < 100 nM; on human TLR9, 1000 to 50000 nM; against human TLR7, < 100 nM.

For `Cc1cc(-c2[nH]c3ccc(C4CCN(C(=O)CCN5CC6(COC6)C5)CC4)cc3c2C(C)C)cn2nnnc12` [Example 631, 1-(4-(3-isopropyl-2-(8-methyltetrazolo[1,5-a]pyridin-6-yl)-1H-indol-5-yl)piperidin-1-yl)-3-(2-oxa-6-azaspiro[3.3]heptan-6-yl)propan-1-one], the half-inhibitory concentration (IC50) against human TLR8 was < 100 nM; on human TLR9, 100 to 1000 nM; against human TLR7, < 100 nM.

On to `Cc1cc(-c2[nH]c3ccc(C4CCN(C(=O)CCN5CCC6CC65)CC4)cc3c2C(C)C)cn2nnnc12` (stereo not drawn) [Example 632, 3-(2-azabicyclo[3.1.0]hexan-2-yl)-1-(4-(3-isopropyl-2-(8-methyltetrazolo[1,5-a]pyridin-6-yl)-1H-indol-5-yl)piperidin-1-yl)propan-1-one], for which the IC50 on human TLR8 was < 100 nM; at human TLR9, 1000 to 50000 nM; at human TLR7 it was < 100 nM.

For the compound `Cc1cc(-c2[nH]c3ccc(C4CCN(C(=O)CCN5CCC(F)CC5)CC4)cc3c2C(C)C)cn2nnnc12` [Example 633, 3-(4-fluoropiperidin-1-yl)-1-(4-(3-isopropyl-2-(8-methyltetrazolo[1,5-a]pyridin-6-yl)-1H-ndol-5-yl)piperidin-1-yl)propan-1-one], the half-inhibitory concentration (IC50) was < 100 nM against human TLR8, 1000 to 50000 nM at human TLR9 and < 100 nM at human TLR7.

Consider `Cc1cc(-c2[nH]c3ccc(C4CCN(C(=O)CCN5CCS(=O)(=O)CC5)CC4)cc3c2C(C)C)cn2nnnc12` [Example 634, 3-(1,1-dioxidothiomorpholino)-1-(4-(3-isopropyl-2-(8-methyltetrazolo[1,5-a]pyridin-6-yl)-1H-indol-5-yl)piperidin-1-yl)propan-1-one], for which the IC50 was 100 to 1000 nM against human TLR8, > 50000 nM against human TLR9 and < 100 nM on human TLR7.

With `Cc1cc(-c2[nH]c3ccc(C4CCN(C(=O)CCN5[C@@H]6CC[C@H]5COC6)CC4)cc3c2C(C)C)cn2nnnc12` [Example 635, 3-((1R,5S)-3-oxa-8-azabicyclo[3.2.1]octan-8-yl)-1-(4-(3-isopropyl-2-(8-methyltetrazolo[1,5-a]pyridin-6-yl)-1H-indol-5-yl)piperidin-1-yl)propan-1-one], the IC50 against human TLR8 is < 100 nM; against human TLR9, 1000 to 50000 nM; at human TLR7 it was < 100 nM.
